These results are taken from US4062934A, “X-ray contrast media” (Laboratoires Andre Guerbet, priority 1975, dated 1977).

Series [1] can be described thus: Osmolality of aqueous solutions containing 28% iodine. The settings on record: aqueous solution. Format: physicochemical.
Series [2] concerns mice. Briefly: LD50, I.V., in mice. It is filed as in vivo. The settings on record: aqueous solution containing 28% iodine.
The nature of series [3]: Neurotoxicity, intra-cisternal injection in rats (technique according to E. Melartin). The settings on record: in vivo, at 50 mg I/rat, read-out: Neurotoxicity: death rate, intra-cisternal injection in rats. An excerpt: *Technique according to E. Melartin (Investigative Radiology, 1970, 5, 1,
The nature of series [4]: Neurotoxicity, intra-cerebral injection in mice (technique according to Haley and MacCornick). The settings on record: mouse, in vivo, 700 mg/kg, at 700 mg I/kg, read-out: Neurotoxicity: death rate, intra-cerebral injection in mice. The text has this: **Technique according to Haley and MacCornick (British Journal
The nature of series [5]: Viscosity of aqueous solution. Format: physicochemical. As to conditions: 25 g iodine per 100 ml, 37° C. How it is done: The product is dissolved in water at a concentration of 25 g iodine per 100 ml. The solution has a viscosity of 7.4 centipoises at 37° C.

As for `CC(=O)N(C)c1c(I)c(NC(=O)[C@H](O)[C@@H](O)[C@H](O)[C@H](O)CO)c(I)c(C(=O)NCCNC(=O)c2c(I)c(NC(=O)[C@H](O)[C@@H](O)[C@H](O)[C@H](O)CO)c(I)c(N(C)C(C)=O)c2I)c1I` [I, 1,2-N,N'-bis(2,4,6-triiodo-3-N-methyl-N-acetylamino-5-N-gluconylamino-benzoyl)-diamino-ethane], the Osmolality in series [1] is given as 200 mosm/kg. Also, the “LD50, I.V., in mice” value in series [2] was determined as 15 g I/kg. In addition, the mortality in series [3] and in series [4] was 0% throughout. The molecule further displayed a viscosity in series [5] of 7.4 centipoises.
Molecule `CC(=O)N(C)c1c(I)c(NC(=O)[C@H](O)[C@@H](O)[C@H](O)[C@H](O)CO)c(I)c(C(=O)N(C)N(C)C(=O)c2c(I)c(NC(=O)[C@H](O)[C@@H](O)[C@H](O)[C@H](O)CO)c(I)c(N(C)C(C)=O)c2I)c1I` [III, N,N'-bis(2,4,6-triiodo-3-N-methyl-N-acetylamino-5-N-gluconylamino-benzoyl)dimethyl hydrazide] displayed an Osmolality in series [1] of 140 mosm/kg. Moreover, the “LD50, I.V., in mice” value in series [2] amounted to 9 g I/kg.
On the same counts, the results for `CC(=O)N(C)c1c(I)c(NC(=O)[C@H](O)[C@@H](O)[C@H](O)[C@H](O)CO)c(I)c(C(=O)NNC(=O)c2c(I)c(NC(=O)[C@H](O)[C@@H](O)[C@H](O)[C@H](O)CO)c(I)c(N(C)C(C)=O)c2I)c1I` [II, N,N'-bis(2,4,6-triiodo-3-N-methyl-N-acetylamino-5-N-gluconylamino-benzoyl)hydrazide] are 204 mosm/kg and 6 g I/kg.
